This passage reports Ki results from ChEMBL document CHEMBL1154953, “3-Aryl-4-(arylhydrazono)-1H-pyrazol-5-ones: Highly ligand efficient and potent inhibitors of GSK3beta” (Bioorg Med Chem Lett, 2010).

For assay [1], the target named is Glycogen synthase kinase-3 beta (Homo sapiens, UniProt P49841).
Description: Inhibition of GSK3-beta assessed as NADH level after 10 mins by pyruvate kinase/lactate dehydrogenase coupled spectrophotometric assay
The target in assay [2] is Mitogen-activated protein kinase 10 (Homo sapiens, UniProt P53779). Briefly: Inhibition of JNK3.
Assay [3] addresses Proto-oncogene tyrosine-protein kinase Src (Homo sapiens, UniProt P12931). The assay can be described thus: Inhibition of SRC.
The target in assay [4] is T1, Receptor-type tyrosine-protein kinase FLT3 (Homo sapiens, UniProt P36888).
T1 sequence (P36888 whole entry): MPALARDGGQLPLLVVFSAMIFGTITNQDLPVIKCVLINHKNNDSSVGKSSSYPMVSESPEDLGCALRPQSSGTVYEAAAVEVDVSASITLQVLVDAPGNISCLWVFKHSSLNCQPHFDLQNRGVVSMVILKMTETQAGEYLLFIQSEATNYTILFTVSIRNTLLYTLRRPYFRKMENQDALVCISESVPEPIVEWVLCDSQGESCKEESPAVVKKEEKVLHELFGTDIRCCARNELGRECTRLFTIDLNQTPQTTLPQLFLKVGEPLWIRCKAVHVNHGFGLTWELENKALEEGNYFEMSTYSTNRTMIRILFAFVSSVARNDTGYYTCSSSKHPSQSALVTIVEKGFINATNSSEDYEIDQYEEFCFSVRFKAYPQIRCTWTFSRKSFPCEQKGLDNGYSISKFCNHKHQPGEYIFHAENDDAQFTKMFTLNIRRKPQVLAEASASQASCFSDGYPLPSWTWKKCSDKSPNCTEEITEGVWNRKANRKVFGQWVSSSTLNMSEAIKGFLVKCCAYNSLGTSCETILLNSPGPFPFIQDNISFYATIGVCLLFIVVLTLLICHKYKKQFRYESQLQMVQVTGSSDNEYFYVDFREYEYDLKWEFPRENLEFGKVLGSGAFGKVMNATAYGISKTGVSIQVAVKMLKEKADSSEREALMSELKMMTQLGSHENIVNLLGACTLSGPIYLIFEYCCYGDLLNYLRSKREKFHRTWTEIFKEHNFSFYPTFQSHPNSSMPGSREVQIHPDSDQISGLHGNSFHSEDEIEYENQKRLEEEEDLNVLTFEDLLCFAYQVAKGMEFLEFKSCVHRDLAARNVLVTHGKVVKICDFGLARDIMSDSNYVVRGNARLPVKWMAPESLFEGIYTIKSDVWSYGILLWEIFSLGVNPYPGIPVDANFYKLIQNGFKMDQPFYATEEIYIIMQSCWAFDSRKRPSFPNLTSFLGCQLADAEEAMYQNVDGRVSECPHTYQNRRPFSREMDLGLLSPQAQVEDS
The assay can be described thus: Inhibition of FLT3.

For assay [5], the target named is Tyrosine-protein kinase JAK2 (Homo sapiens, UniProt O60674). Briefly: Inhibition of JAK2.
The nature of assay [6]: Inhibition of PKA.
Assay [7] concerns the target Vascular endothelial growth factor receptor 2 (Homo sapiens, UniProt P35968). The assay can be described thus: Inhibition of KDR.
The target of assay [8] is Serine/threonine-protein kinase PLK1 (Homo sapiens, UniProt P53350). The assay can be described thus: Inhibition of PLK1.
Sequence of Serine/threonine-protein kinase PLK1 (P53350 whole entry): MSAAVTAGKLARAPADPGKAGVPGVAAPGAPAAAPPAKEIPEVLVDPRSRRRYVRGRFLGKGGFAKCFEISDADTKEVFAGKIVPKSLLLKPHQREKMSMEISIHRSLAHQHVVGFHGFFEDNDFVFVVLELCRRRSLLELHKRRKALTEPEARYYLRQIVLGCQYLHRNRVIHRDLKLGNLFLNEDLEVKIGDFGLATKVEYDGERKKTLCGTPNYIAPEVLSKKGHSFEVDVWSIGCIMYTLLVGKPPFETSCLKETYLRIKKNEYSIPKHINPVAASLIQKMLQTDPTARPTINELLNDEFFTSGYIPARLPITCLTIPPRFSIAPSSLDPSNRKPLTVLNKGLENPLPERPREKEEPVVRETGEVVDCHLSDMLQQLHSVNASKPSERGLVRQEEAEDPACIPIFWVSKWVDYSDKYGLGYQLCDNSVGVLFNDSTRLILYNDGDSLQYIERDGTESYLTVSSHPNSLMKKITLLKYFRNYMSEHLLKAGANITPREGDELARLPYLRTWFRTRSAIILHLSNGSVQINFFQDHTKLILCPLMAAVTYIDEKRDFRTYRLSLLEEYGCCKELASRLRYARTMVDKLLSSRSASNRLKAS
In assay [9] the target is T2, Interleukin-1 receptor-associated kinase 4 (Homo sapiens, UniProt Q9NWZ3).
T2 sequence (Q9NWZ3 whole entry): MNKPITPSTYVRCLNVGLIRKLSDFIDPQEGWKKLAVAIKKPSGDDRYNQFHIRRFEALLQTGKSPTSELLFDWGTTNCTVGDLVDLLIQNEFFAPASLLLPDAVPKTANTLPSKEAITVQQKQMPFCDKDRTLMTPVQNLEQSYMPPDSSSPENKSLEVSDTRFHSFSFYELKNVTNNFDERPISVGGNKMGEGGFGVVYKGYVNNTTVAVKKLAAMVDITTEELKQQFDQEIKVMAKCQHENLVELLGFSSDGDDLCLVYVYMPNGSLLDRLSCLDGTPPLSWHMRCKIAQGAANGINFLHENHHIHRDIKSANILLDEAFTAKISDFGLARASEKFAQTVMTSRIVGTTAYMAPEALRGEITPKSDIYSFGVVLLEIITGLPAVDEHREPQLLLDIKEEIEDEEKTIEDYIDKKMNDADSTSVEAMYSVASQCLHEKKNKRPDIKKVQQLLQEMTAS
Briefly: Inhibition of IRAK4.

For assay [10], the target named is Hepatocyte growth factor receptor (Homo sapiens, UniProt P08581).
In assay [11] the target is Cyclin-dependent kinase 2 (Homo sapiens, UniProt P24941).
Assay [12] deals with Rho-associated protein kinase 1 (Homo sapiens, UniProt Q13464). Briefly: Inhibition of ROCK1.
Sequence of Rho-associated protein kinase 1 (Q13464 whole entry): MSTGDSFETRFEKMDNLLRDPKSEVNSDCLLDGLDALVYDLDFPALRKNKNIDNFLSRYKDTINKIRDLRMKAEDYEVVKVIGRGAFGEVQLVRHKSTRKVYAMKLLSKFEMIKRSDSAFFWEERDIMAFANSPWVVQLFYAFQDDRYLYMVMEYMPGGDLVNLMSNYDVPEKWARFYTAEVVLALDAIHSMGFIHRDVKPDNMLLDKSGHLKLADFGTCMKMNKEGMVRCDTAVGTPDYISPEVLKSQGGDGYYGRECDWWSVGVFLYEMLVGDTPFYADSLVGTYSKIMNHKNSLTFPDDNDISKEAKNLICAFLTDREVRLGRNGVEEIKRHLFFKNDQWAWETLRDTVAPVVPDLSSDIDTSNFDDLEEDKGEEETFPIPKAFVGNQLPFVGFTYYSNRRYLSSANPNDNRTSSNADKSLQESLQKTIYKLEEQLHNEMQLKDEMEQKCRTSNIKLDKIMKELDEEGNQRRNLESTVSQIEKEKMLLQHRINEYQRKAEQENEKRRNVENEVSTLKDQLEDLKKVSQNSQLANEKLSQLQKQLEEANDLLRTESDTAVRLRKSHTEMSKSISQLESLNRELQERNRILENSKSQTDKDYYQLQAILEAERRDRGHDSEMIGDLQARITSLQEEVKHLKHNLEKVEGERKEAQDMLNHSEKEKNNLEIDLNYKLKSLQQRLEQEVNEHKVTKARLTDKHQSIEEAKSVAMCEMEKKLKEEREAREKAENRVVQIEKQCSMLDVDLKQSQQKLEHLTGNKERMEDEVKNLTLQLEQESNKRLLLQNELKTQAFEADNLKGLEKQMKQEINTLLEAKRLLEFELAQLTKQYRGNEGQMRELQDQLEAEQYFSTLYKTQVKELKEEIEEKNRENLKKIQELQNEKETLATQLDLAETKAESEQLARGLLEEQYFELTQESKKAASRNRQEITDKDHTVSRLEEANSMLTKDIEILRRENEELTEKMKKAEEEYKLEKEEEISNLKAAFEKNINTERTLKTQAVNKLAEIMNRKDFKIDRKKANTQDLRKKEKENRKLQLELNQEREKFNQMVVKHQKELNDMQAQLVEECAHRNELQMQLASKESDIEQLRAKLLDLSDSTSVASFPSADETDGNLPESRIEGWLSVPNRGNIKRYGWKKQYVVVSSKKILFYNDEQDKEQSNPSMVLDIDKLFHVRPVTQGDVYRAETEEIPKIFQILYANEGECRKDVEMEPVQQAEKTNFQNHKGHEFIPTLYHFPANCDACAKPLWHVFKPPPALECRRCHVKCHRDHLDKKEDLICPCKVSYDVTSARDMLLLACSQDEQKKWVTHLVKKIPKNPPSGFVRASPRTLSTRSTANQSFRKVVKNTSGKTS
The target in assay [13] is Tyrosine-protein kinase SYK (Homo sapiens, UniProt P43405).
The target of assay [14] is Phosphatidylinositol 4,5-bisphosphate 3-kinase catalytic subunit gamma isoform (Homo sapiens, UniProt P48736). The assay can be described thus: Inhibition of PI3Kgamma.

Sequence of Glycogen synthase kinase-3 beta (P49841 whole entry): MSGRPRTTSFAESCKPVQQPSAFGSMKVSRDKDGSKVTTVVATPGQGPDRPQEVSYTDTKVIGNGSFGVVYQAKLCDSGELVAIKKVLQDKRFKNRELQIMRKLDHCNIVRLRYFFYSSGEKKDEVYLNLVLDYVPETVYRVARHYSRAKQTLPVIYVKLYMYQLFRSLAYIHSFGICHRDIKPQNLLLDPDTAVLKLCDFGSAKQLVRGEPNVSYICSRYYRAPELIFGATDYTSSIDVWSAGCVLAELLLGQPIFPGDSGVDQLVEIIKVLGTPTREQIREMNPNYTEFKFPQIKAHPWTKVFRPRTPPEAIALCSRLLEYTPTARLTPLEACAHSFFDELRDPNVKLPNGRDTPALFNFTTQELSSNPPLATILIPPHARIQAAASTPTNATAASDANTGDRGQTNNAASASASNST
Sequence of Vascular endothelial growth factor receptor 2 (P35968 whole entry): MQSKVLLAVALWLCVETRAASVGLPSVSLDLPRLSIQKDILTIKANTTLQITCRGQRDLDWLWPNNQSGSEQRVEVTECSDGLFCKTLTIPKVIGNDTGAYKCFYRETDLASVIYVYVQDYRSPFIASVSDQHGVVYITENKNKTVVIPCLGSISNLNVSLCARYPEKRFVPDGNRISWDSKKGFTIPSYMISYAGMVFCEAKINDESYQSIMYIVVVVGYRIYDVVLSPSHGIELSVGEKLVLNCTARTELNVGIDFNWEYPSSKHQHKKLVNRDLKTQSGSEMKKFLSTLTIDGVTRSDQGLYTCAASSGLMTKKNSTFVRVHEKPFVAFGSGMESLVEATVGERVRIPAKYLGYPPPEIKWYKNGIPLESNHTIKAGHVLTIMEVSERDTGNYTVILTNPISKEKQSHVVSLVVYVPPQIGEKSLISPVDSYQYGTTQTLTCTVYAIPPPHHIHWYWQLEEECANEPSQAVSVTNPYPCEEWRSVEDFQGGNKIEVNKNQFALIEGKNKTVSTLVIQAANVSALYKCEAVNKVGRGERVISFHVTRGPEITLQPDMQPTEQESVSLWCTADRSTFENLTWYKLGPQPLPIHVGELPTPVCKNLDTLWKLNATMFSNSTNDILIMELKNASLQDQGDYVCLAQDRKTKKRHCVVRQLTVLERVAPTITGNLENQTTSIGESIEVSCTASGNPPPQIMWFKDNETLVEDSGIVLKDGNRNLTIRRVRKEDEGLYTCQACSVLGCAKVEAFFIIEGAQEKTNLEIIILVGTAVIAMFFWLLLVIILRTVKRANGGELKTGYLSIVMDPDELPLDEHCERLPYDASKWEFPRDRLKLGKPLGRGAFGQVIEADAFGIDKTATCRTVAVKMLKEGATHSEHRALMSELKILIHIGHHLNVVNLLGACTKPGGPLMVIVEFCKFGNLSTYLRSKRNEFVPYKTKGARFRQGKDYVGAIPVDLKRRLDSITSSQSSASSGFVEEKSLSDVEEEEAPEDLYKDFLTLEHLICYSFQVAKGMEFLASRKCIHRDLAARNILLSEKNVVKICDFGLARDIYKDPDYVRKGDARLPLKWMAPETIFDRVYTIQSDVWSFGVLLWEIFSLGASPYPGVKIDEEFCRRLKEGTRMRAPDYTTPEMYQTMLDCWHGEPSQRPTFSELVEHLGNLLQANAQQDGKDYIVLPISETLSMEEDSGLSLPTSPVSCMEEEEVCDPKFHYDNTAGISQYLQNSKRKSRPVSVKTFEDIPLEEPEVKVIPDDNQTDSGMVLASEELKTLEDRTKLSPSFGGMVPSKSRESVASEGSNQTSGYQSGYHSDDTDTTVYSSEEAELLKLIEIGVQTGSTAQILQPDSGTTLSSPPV
Sequence of Mitogen-activated protein kinase 10 (P53779 whole entry): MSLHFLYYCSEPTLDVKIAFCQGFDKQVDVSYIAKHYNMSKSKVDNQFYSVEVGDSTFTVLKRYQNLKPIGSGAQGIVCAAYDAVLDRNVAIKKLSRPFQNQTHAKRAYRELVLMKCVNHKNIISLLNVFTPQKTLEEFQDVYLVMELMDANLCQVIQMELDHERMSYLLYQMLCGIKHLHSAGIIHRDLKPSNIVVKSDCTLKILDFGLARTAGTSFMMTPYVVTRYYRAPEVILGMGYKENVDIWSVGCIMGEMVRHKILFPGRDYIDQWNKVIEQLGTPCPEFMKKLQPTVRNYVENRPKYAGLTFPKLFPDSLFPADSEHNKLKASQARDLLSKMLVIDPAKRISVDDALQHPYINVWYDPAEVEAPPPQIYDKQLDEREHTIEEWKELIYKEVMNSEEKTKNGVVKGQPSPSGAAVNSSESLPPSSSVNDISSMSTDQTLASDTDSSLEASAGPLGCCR
Sequence of Proto-oncogene tyrosine-protein kinase Src (P12931 2-536 limits assumed): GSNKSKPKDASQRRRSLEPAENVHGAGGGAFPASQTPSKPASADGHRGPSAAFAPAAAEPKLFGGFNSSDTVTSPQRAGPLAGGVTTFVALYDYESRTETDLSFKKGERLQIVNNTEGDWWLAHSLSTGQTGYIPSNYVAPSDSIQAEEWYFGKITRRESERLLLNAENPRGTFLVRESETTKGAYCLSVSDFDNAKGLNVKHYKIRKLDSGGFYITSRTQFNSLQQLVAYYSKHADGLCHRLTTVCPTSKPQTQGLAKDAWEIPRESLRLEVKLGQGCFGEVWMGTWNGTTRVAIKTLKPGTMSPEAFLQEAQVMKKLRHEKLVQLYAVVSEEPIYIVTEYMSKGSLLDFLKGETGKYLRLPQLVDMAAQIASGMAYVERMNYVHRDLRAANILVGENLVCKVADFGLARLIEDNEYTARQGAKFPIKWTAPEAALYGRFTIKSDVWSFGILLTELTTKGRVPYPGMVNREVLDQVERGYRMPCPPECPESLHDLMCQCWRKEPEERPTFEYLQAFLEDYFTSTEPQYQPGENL

`COc1ccncc1C1=NNC(=O)/C1=N\Nc1ccncc1` had a Ki in [1] of 0.016 µM.

For `CC1=NNC(=O)/C1=N\Nc1ccccc1Cl`, in [1], affinity was put at a Ki of 0.46 µM. Regarding `COc1cccc(C2=NNC(=O)/C2=N\Nc2ccc(Cl)cc2)c1`, the Ki in [1] amounted to 0.009 µM. As to `COc1ccc(C2=NNC(=O)/C2=N\Nc2cccc(Cl)c2)cc1`, the inhibition constant (Ki) in assay [1] was determined as 0.0019 µM. For the compound `COc1ccc(C2=NNC(=O)/C2=N\Nc2cccnc2)cc1`, the inhibition constant (Ki) in [1] is 0.002 µM; in assay [2], more than 4 µM; in assay [3] it was more than 4 µM; in assay [4], 0.13 µM; in [5], more than 4 µM; in assay [6], more than 4 µM. The Ki in assay [7] was 3.4 µM; in assay [8], more than 4 µM; in [9], 1.5 µM; in assay [10], more than 4 µM; in assay [11], 0.062 µM; in assay [12], more than 4 µM.

For the compound `COc1cccc(N/N=C2\C(=O)NN=C2c2cnccc2OC)c1`, the inhibitory constant (Ki) in assay [1] was determined as 0.0037 µM. In assay [1], `COc1ccc(N/N=C2\C(=O)NN=C2c2cnccc2OC)cc1` showed an inhibition constant Ki of 0.002 µM. The same measure, in the same setting: the value for `COc1cccc(C2=NNC(=O)/C2=N\Nc2ccccc2)c1` was 0.039 µM; that for `COc1cccc(C2=NNC(=O)/C2=N\Nc2cccc(Cl)c2)c1` was 0.008 µM. On the same count and under the same terms, the value for `CC(C)C1=NNC(=O)/C1=N\Nc1ccccc1Cl` was more than 3.7 µM; that for `O=C1NN=C(c2ccccn2)/C1=N/Nc1ccccc1Cl` was 0.65 µM; that for `O=C1NN=C(c2cccnc2)/C1=N/Nc1ccccc1Cl` was 0.2 µM. Same read-out and setting: the value for `O=C1NN=C(c2ccncc2)/C1=N/Nc1ccccc1Cl` was 0.25 µM. Consider `O=C1NN=C(c2ccccc2)/C1=N/Nc1ccccc1Cl`, for which the inhibition constant (Ki) in assay [1] is 0.72 µM. On the same count and under the same terms, the value for `COc1cccc(C2=NNC(=O)/C2=N\Nc2ccc(N(C)C)cc2)c1` was 0.009 µM. In turn, `COc1cccc(C2=NNC(=O)/C2=N\Nc2ccc(N3CCOCC3)cc2)c1` came in with an inhibition constant (Ki) in assay [1] of 0.059 µM. Compound `COc1ccc(C2=NNC(=O)/C2=N\Nc2ccc(Cl)cc2)cc1` registered a Ki in [1] of 0.002 µM. Same read-out and setting: in the case of `O=C1NN=C/C1=N/Nc1ccccc1Cl` it was 1.49 µM. Turning to `COc1ccc(C2=NNC(=O)/C2=N\Nc2cccc(OC)c2)cc1`, the Ki was 0.0008 µM in assay [1]; more than 4 µM in [2]; more than 4 µM in assay [3]; 0.066 µM in assay [4]; more than 1.6 µM in [5]; more than 4 µM in assay [6]. The Ki in assay [7] was 1.8 µM; in assay [8], more than 4 µM; in [10], more than 4 µM; in [11], 0.095 µM; in assay [12] it was more than 4 µM. The compound `COc1cccc(C2=NNC(=O)/C2=N\Nc2ccccc2Cl)c1` gave a Ki in assay [1] of 0.85 µM.

Take `COc1ccc(C2=NNC(=O)/C2=N\Nc2ccc(C#N)cc2)cc1`: the inhibitory constant (Ki) in [1] is less than 0.002 µM. In [1], `COc1ccc(C2=NNC(=O)/C2=N\Nc2ccncc2)cc1` registered an inhibition constant Ki of 0.014 µM. Consider `COc1ccc(C2=NNC(=O)/C2=N\Nc2ccc(N(C)C)cc2)cc1`, for which the Ki in [1] was 0.11 µM. As to `CCN(CC)c1ccc(N/N=C2\C(=O)NN=C2c2ccc(OC)cc2)cc1`, in [1], affinity was put at a Ki of 0.016 µM. This Ki is about 6.9-fold lower than that of the compound before.

In turn, `COc1ccncc1C1=NNC(=O)/C1=N\Nc1ccc(C#N)cc1` returned an inhibition constant Ki in assay [1] of 0.0083 µM. Turning to `COc1ccncc1C1=NNC(=O)/C1=N\Nc1cccnc1`, the affinity in assay [1] corresponds to a Ki of 0.023 µM. Same read-out and setting: the value for `COc1ccccc1N/N=C1\C(=O)NN=C1c1ccccc1` was more than 4 µM; that for `COc1cccc(N/N=C2\C(=O)NN=C2c2ccccc2)c1` was 0.035 µM. Same read-out and setting: in the case of `COc1ccc(C2=NNC(=O)/C2=N\Nc2ccccc2Cl)cc1OC` it was 0.044 µM; in that of `O=C1NN=C(c2ccccc2)/C1=N/Nc1ccccc1`, 0.099 µM. Still for that read-out and setting: the value for `O=C1NN=C(c2ccccc2)/C1=N/Nc1cccc(Cl)c1` was 0.12 µM; that for `O=C1NN=C(c2ccccc2)/C1=N/Nc1ccc(Cl)cc1` was 0.023 µM; that for `COc1ccncc1C1=NNC(=O)/C1=N\Nc1ccc(C(=O)O)cc1` was 0.0077 µM. Turning to `COc1ccncc1C1=NNC(=O)/C1=N\Nc1ccc(N2CCOCC2)cc1`, in assay [1], affinity was put at a Ki of 0.05 µM. Same read-out and setting: in the case of `COc1ccc(N/N=C2\C(=O)NN=C2c2ccccn2)cc1` it was 0.64 µM; in that of `COc1ccc(N/N=C2\C(=O)NN=C2c2cccnc2)cc1`, 0.02 µM; in that of `COc1ccc(N/N=C2\C(=O)NN=C2c2ccncc2)cc1`, 0.03 µM.

`COc1ccc(N/N=C2\C(=O)NN=C2c2cccc(OC)c2)cc1` yielded an inhibitory constant (Ki) in assay [1] of 0.018 µM. The compound `COc1ccc(N/N=C2\C(=O)NN=C2c2ccc(OC)cc2)cc1` displayed a Ki in assay [1] of 0.002 µM. Still for that read-out and setting: in the case of `COc1cccc(N/N=C2\C(=O)NN=C2c2cccc(OC)c2)c1` it was 0.005 µM; in that of `COc1cccc(C2=NNC(=O)/C2=N\Nc2ccc(C#N)cc2)c1`, 0.004 µM. In the case of `COc1cccc(C2=NNC(=O)/C2=N\Nc2ccccn2)c1`, the affinity in assay [1], expressed as Ki, was 0.008 µM.

Turning to `COc1cccc(C2=NNC(=O)/C2=N\Nc2cccnc2)c1`, affinity in assay [1] was put at a Ki of 0.03 µM. Against the preceding compound, the Ki is about 3.8-fold higher. Still for that read-out and setting: in the case of `COc1ccc(N/N=C2\C(=O)NN=C2c2ccc(OC)c(OC)c2)cc1` it was less than 0.002 µM; in that of `COc1ccc(N/N=C2\C(=O)NN=C2c2cc(OC)c(OC)c(OC)c2)cc1`, 0.009 µM. The same measure, in the same setting: the value for `COc1cccc(C2=NNC(=O)/C2=N\Nc2ccncc2)c1` was 0.023 µM; that for `COc1cccc(C2=NNC(=O)/C2=N\Nc2ccc(C(=O)O)cc2)c1` was 0.0065 µM; that for `COc1ccc(C2=NNC(=O)/C2=N\Nc2ccc(N(C)C)cc2)cc1OC` was 0.087 µM. Still for that read-out and setting: in the case of `CCN(CC)c1ccc(N/N=C2\C(=O)NN=C2c2ccc(OC)c(OC)c2)cc1` it was 0.002 µM; in that of `COc1ccc(C2=NNC(=O)/C2=N\Nc2ccc(N3CCOCC3)cc2)cc1OC`, 0.003 µM. In the case of `COc1ccncc1C1=NNC(=O)/C1=N\Nc1ccccc1`, the Ki in assay [1] is 0.0045 µM; in [2] it was 2.5 µM; in [3], more than 4 µM; in assay [4] it was 0.29 µM; in assay [13], 1.8 µM; in assay [5] it was 3.5 µM. The Ki in [6] is more than 4 µM; in [7], 1 µM; in assay [14] it was 0.54 µM; in [8] it was more than 4 µM; in assay [9], 1.1 µM; in assay [12], more than 4 µM. In [1], `COc1ccc(C2=NNC(=O)/C2=N\Nc2ccc(C#N)cc2)cc1OC` gave a Ki of less than 0.002 µM. In turn, `COc1ccc(C2=NNC(=O)/C2=N\Nc2cccnc2)cc1OC` gave an inhibition constant Ki in assay [1] of less than 0.0035 µM.

In assay [1], `COc1ccc(C2=NNC(=O)/C2=N\Nc2ccncc2)cc1OC` gave an inhibitory constant (Ki) of less than 0.0035 µM.

In assay [1], `COc1ccc(C2=NNC(=O)/C2=N\Nc2cccc(Cl)c2)cc1OC` registered a Ki of 0.0004 µM. For `COc1ccc(C2=NNC(=O)/C2=N/Nc2ccc(Cl)cc2)cc1OC`, the inhibition constant (Ki) in assay [1] is less than 0.002 µM. As for `COc1ccncc1C1=NNC(=O)/C1=N\Nc1ccc(Cl)cc1`, the affinity in assay [1] corresponds to a Ki of 0.003 µM. This lies in the single-digit nanomolar range. Same read-out and setting: the value for `COc1cccc(N/N=C2\C(=O)NN=C2c2ccc(OC)c(OC)c2)c1` was 0.0004 µM; that for `COc1ccccc1N/N=C1\C(=O)NN=C1c1cnccc1OC` was 0.27 µM; that for `COc1ccc(C2=NNC(=O)/C2=N\Nc2ccc(N3CCOCC3)cc2)cc1` was 0.008 µM. For the compound `COc1ccc(C2=NNC(=O)/C2=N\Nc2ccccc2)cc1OC`, the Ki in assay [1] was less than 0.0035 µM.

For orientation: Ki means the equilibrium dissociation constant of an inhibitor or competing ligand from its target.
